Measured values taken from patent publication US4812573A, “Pharmaceutically active compounds” (SmithKline & French Laboratories, Ltd., priority 1986, dated 1989).
pIC50: −log10 of the molar value. Counter-ions that a name gives are not always drawn.

Assays:
TXA2 receptors = target: T1, TXA2 receptors (Homo sapiens, UniProt P21731); assay: human platelet binding assay ([^125 I]PTA-OH receptor ligand); settings: 50% inhibition of specific [^125 I]PTA-OH binding
T1 construct: endogenous in cells; host or cells: human platelets
T1 sequence (P21731 1-343): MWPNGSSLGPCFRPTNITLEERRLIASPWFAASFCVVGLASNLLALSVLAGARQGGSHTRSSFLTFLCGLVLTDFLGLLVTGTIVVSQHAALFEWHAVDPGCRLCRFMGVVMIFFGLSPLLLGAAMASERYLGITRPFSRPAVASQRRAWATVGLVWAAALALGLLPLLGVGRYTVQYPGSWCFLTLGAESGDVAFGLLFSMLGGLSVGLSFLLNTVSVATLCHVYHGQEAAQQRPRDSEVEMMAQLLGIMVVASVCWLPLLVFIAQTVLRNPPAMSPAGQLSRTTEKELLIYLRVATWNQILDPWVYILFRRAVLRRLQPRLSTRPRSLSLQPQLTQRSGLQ
Description: As indicated above, compounds of the formula (I) have biological activity that is indicative of an ability to antagonise TXA2 receptors. […] Exp. Ther., 1985, 235(3), 729-734 where [^125 I]PTA-OH was used as the receptor ligand. The IC50 values represent the concentration which produces a 50% inhibition of specific [^125 I]PTA-OH binding.

human washed platelets = assay: human platelet aggregation assay (submaximal U46619 induced aggregation); assay type: cell-based
Description: As indicated above, compounds of the formula (I) have biological activity that is indicative of an ability to antagonise TXA2 receptors.
(b) human platelet aggregation assay.
HUMAN PLATELET AGGREGATION ASSAY
The aggregation assay used human washed platelets and was based on that described by Born (Nature, 1962, vol. 194, 927-929). The assay determines a concentration of test compound which inhibits a submaximal U46619 induced aggregation by 50% (IC50). U46619 is the thromboxane A2 -agonist (9,11-dideoxy-11α,9α-epoxymethanoprostaglandin F2α).

Row | pIC50 (TXA2 receptors) | pIC50 (human washed platelets) | SMILES
1 | 4.39 |  | O=C(O)CCCCN1CCc2ccc(NS(=O)(=O)c3ccccc3)cc2C1 [Example 12, 5-[7-Phenylsulphonamido-1,2,3,4-tetrahydroisoquiolin-2-yl]valeric acid]
2 | 5.04 |  | O=C(O)CCCCN1CCc2ccc(S(=O)(=O)Nc3ccccc3)cc2C1 [Example 6, 5-(7-Phenylsulphamoyl-1,2,3,4-tetrahydroisoquinolin-2-yl)valeric acid]
3 | 6.15 |  | O=C(O)C#CCN1CCc2ccc(S(=O)(=O)Nc3cccc(Cl)c3)cc2C1 [Example 8, Sodium 4-[7-(3-chlorophenylsulphamoyl)-1,2,3,4-tetrahydroisoquinolin-2-yl]but-2-ynoate]
4 | 5.51 |  | CCOC(=O)CCCCN1CCc2ccc(S(=O)(=O)Nc3cccc(Cl)c3)cc2C1 [Example 3a, ethyl-5-[7-(3-chlorophenylsulphamoyl)-1,2,3,4-tetrahydroisoquinolin-2-yl]valerate hydrochloride]
5 | 4.01 |  | CCCCC(C(=O)O)N1CCc2ccc(NS(=O)(=O)c3ccccc3)cc2C1 (centres unmarked) [Example 14, 2-[(7-Phenylsulphonamido)-1,2,3,4-tetrahydroisoquinolin-2-yl]-caproic acid hydrochloride]
6 | 5.97 | 5.41 | O=C(O)CCCCN1CCc2ccc(S(=O)(=O)Nc3cccc(Cl)c3)cc2C1 [Example 3b, 5-[7-(3-Chlorophenylsulphamoyl)-1,2,3,4-tetrahydroisoquinolin-2-yl]valeric acid]
7 | 5.43 |  | O=C(O)CCCN1CCc2ccc(S(=O)(=O)Nc3ccccc3)cc2C1 [Example 5, 4-(7-Phenylsulphamoyl-1,2,3,4-tetrahydroisoquinolin-2-yl)butyric acid]
8 | 4.08 |  | O=C(O)CN1CCc2ccc(NS(=O)(=O)c3ccccc3)cc2C1 [Example 13, 2-[(7-Phenylsulphonamido)-1,2,3,4-tetrahydroisiquinolin-2-yl]-acetic acid hydrochloride]
9 | 3.87 |  | O=C(O)CCCCN1CCc2c(cccc2NS(=O)(=O)c2ccccc2)C1 [Example 10, 5-[(5-Phenylsulphonamido)-1,2,3,4-tetrahydroisoquinolin-2-yl]valeric acid hydrochloride]
10 | 5.55 |  | O=C(O)CCCN1CCc2ccc(S(=O)(=O)Nc3cccc(C(F)(F)F)c3)cc2C1 [Example 7, 4-[7-(3-Trifluoromethylphenylsulphamoyl)-1,2,3,4-tetrahydroisoquinolin-2-yl]butyric acid]
11 | 5.99 | 5.03 | O=C(O)CCCN1CCc2ccc(S(=O)(=O)Nc3cccc(Cl)c3)cc2C1 [Example 2, 4-[7-(3-Chlorophenylsulphamoyl)-1,2,3,4-tetrahydroisoquinolin-2-yl]butyric acid]
12 | 4.31 | 3.99 | O=C(O)CCN1CCc2ccc(S(=O)(=O)Nc3cccc(Cl)c3)cc2C1 [Example 1, 3-[7-(3-Chlorophenylsulphamoyl)-1,2,3,4-tetrahydroisoquinolin-2-yl]propionic acid]
13 | 3.63 |  | O=C(O)CCCN1CCc2cc(NS(=O)(=O)c3ccccc3)ccc2C1 [Example 11, 4-[6-Phenylsulphonamido-1,2,3,4-tetrahydroisoquinolin-2-yl]butyric acid]
14 | 4.10 |  | O=C(O)CCCN1CCc2c(cccc2NS(=O)(=O)c2ccccc2)C1 [Example 9, 4-[5-(Phenylsulphonamido)-1,2,3,4-tetrahydroisoquinolin-2-yl]butyric acid hydrochloride]
15 | 5.11 |  | O=C(O)CCCN1CCc2ccc(S(=O)(=O)Nc3ccc(Cl)cc3)cc2C1 [Example 15, 4-[7-(4-Chlorophenylsulphamoyl)-1,2,3,4-tetrahydroisoquinolin-2-yl]butyric acid]
16 | 5.42 | 4.47 | O=C(O)CCCCCN1CCc2ccc(S(=O)(=O)Nc3cccc(Cl)c3)cc2C1 [Example 4, 6-[7-(3-Chlorophenylsulphamoyl)-1,2,3,4-tetrahydroisoquinolin-2-yl]hexanoicacid]
